Entries after “also recorded” stand apart in the source; their conditions may differ. Marks after values point to notes of the source that are not given here.
Tests used:
[1] = 10 and 30 mg/kg after oral treatment; cited from earlier work
[2] = single 0.7 mg/kg oral treatment; cited from earlier work
[3] = 1 and 10 mg/kg after oral administration; cited from earlier work
central 5-HT2A receptors = central 5-HT2A receptors (Homo sapiens, UniProt P28223); settings: cited from earlier work
Mongolian gerbils = experiment: Global cerebral ischemia (BCO): locomotor activity in symmetrical Y-maze four days after surgery; type: in vivo
Method: (§1) In our experiments male Mongolian gerbils weighing 50-80 g were used. Deramciclane was administered at 3×30 mg/kg intraperitoneally 60 min before, 30 and 90 min after surgery. Deramciclane was suspended in 0.4% methyl-cellulose solution. In ether narcosis, the right and left common carotid arteries were exposed through an anterior midline cervical incision and isolated from the vagus nerves and the surrounding tissues. Full arrest of carotid blood flow was achieved by tightening an aneurysm clip for 3 min. During surgery the body temperature of the animals was kept at the individual preoperative level (37.5±0.5° C.) with the help of a heating pad and a heating lamp.
The Mongolian gerbils were placed in the centre of the maze then the number of entries into the three arms was recorded for 5 min. By definition, the animal performed an arm entry when it entered the arm and proceeded at least the distance of its body length. The gerbil was considered to exit the arm when it left it fully. Differences between groups were statistically evaluated by Kruskal-Wallis ANOVA. In case of p<0.05 significance Mann-Whitney U-test was used for paired comparisons.

[4] = test system: hippocampal CA1 pyramidal cell death; experiment: Global cerebral ischemia by 3 min bilateral carotid artery occlusion (BCO): hippocampal CA1 neuronal damage score; type: in vivo, Mongolian gerbils
Method: as §1
After behavioural testing the animals were anesthetized with 60 mg/kg i.p. pentobarbital (10 ml/kg) and perfused through the heart first with saline then with a fixative solution containing 0.1% glutaraldehyde, 4% paraformaldehyde, and 0.2% picric acid in 0.1 M phosphate buffer pH 7.4 for 30 min. The brain was removed from the skull and post-fixed for at least 1 week at 4° C. in the same fixative solution.
Alternate coronal sections of 60 μm thickness were cut from different levels of the dorsal hippocampus by a microtone. The sections were repeatedly washed in 0.1 M phosphate buffer then stained by silver impregnation.
The sections were examined under light microscopy and the overall neuronal damage in the hippocampal CA1 subfield in both hippocampi was scored on a 6-point scale: (0) undamaged, (1)<10%, (2) 10-30%, (3) 30-50%, (4) 50-70%, (5) 70-90%, and (6) 90-100% cell loss. Group differences between drug-treated and vehicle-treated groups were statistically analysed by Mann-Whitney U-test.

[5] = single oral dose of 3 mg/kg; cited from earlier work
[6] = 1 and 10 mg/kg ip.; cited from earlier work
central 5-HT2C receptors = central 5-HT2C receptors (Homo sapiens, UniProt P28335); settings: cited from earlier work
[7] = cited from earlier work
[8] = test system: brain damage after transient global cerebral ischaemia; settings: global cerebral ischaemia in gerbils; cited from earlier work
[9] = 3 × 30 mg/kg i.p., compared to the BCO group
[10] = in the applied dose (3 × 30 mg/kg i.p.)

Sequence of central 5-HT2C receptors (P28335 33-458): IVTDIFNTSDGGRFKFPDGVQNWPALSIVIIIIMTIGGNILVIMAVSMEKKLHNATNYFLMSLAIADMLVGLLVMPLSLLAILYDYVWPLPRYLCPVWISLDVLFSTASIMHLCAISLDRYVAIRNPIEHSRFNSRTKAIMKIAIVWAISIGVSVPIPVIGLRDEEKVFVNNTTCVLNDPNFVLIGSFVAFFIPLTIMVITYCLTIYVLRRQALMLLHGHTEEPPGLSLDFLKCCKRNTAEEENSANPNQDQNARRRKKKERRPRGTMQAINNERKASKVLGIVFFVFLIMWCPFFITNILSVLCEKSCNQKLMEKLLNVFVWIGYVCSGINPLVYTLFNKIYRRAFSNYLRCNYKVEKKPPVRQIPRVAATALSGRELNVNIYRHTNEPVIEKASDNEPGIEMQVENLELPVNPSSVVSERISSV
Sequence of central 5-HT2A receptors (P28223 whole entry): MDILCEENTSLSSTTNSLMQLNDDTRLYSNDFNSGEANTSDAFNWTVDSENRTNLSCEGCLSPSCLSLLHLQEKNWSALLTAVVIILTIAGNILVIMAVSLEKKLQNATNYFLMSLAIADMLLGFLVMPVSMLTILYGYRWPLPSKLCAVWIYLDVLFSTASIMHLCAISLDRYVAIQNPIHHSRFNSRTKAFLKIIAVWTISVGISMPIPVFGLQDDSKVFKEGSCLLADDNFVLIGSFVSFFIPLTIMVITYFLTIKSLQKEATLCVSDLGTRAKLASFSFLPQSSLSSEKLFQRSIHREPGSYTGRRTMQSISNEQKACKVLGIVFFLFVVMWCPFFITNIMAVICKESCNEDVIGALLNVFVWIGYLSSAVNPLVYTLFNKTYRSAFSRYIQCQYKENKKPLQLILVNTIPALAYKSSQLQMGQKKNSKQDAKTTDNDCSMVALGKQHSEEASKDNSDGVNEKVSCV

CN(C)CCO[C@]1(c2ccccc2)C[C@H]2CC[C@]1(C)C2(C)C [deramciclane, (1R,2S,4R)-(−)-2-(2-dimethylaminoethoxy)-2-phenyl-1,7,7-trimethyl-bicyclo[2.2.1]heptane]
activity in marble burying test [1]: active
time spent with social interactions [2]: increased
activity in Vogel punished drinking test [3]: active
binding to central 5-HT2A receptors (in words) (central 5-HT2A receptors): binds primarily
Number of arm entries (Mongolian gerbils; 3 × 30 mg/kg i.p., Y-maze, 5 min, four days after surgery, sham 40.25, BCO 65.44): 38.78**
Effect % (number of arm entries) (Mongolian gerbils; [9]): −100%
locomotor activity of animals (in words) (Mongolian gerbils; [10]): decreased the locomotor activity of animals into the normal range
CA1 cell death (score) ([4]; 3 × 30 mg/kg i.p. (60 min before, 30 and 90 min after surgery), 6-point scale 0-6, BCO control 4.90): 0.89** score
Effect % (CA1 cell death) [4, 9]: −82%
proportion of cell death in the hippocampal CA1 region (in words) [4, 10]: significantly reduced
activity in light-dark test [5]: active
antidepressant activity in learned helplessness test [6]: produced antidepressant activity
binding to central 5-HT2C receptors (in words) (central 5-HT2C receptors): binds primarily
anxiety caused by CCK in elevated plus maze test ([7]; CCK-induced anxiety): antagonized
activity in elevated plus maze test ([7]; in vivo): ineffective

Cc1nc2sccn2c(=O)c1CCN1CCC(=C(c2ccc(F)cc2)c2ccc(F)cc2)CC1 [ritanserin]
neuroprotective activity [8]: did not show neuroprotective activity; also recorded: did not produce neuroprotective effect
